Data published in ChEMBL document CHEMBL1148572, “1-((S)-2-aminopropyl)-1H-indazol-6-ol: a potent peripherally acting 5-HT2 receptor agonist with ocular hypotensive activity” (J Med Chem, 2006).
pEC50, pIC50, pKi: −log10 of the molar value.

Assays:
[1] = molecular target: T1, 5-hydroxytryptamine receptor 2C (Rattus norvegicus) (UniProt P08909); assay: Activity against recombinant rat 5HT2C mediated intracellular calcium mobilization by FLIPR in SR3T3 cells
T1 sequence (whole entry): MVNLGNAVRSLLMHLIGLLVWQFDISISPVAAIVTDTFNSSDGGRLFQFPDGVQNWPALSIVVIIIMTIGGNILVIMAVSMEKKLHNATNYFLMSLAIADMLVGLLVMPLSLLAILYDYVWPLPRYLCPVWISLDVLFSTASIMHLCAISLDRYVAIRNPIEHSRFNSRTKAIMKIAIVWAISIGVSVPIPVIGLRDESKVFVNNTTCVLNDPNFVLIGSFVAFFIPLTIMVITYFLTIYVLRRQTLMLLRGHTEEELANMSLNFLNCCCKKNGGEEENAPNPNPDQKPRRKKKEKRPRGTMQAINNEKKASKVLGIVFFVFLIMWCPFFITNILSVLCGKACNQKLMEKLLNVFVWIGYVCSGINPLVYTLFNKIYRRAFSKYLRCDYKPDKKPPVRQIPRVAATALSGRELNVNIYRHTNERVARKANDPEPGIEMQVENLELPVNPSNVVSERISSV

[2] = Half life in phosphate buffer at pH 7.4 in 45 degC; format: ADME
[3] = molecular target: 5-hydroxytryptamine receptor 2A (Rattus norvegicus) (UniProt P14842); assay: (§1) Activity against 5HT2A mediated intracellular calcium mobilization by FLIPR in rat vascular smooth muscle cells; format: functional, cell-based
[4] = Distribution coefficient at pH 7.4; format: physicochemical; details: octanol/water
[5] = Half life in phosphate buffer at pH 7.4 in 25 degC; format: ADME
[6] = molecular target: T2, 5-hydroxytryptamine receptor 2A (Rattus norvegicus, UniProt P14842); format: tissue-based, Cerebral cortex
MDR1 (P-gp) [7] = assay: Permeability from apical to basolateral side of the MDCK cell transfected with human MDR1; format: ADME, cell-based
[8] = molecular target: 5-hydroxytryptamine receptor 2B (Rattus norvegicus, UniProt P30994); assay: Activity against 5HT2B receptor in longitudinal stomach fundus strips in wistar rats
MDR1 (P-gp) [9] = assay: Permeability from basolateral to apical side of the MDCK cell transfected with human MDR1; format: ADME, cell-based
[10] = molecular target: T2, 5-hydroxytryptamine receptor 2A; assay: as §1; format: functional, cell-based
MDR1 (P-gp) [11] = assay: in vitro; details: human, MDCK-MDR1
Description: Ratio of permeability from basolateral to apical over apical to basolateral side of the MDCK cell transfected with human MDR1

[12] = molecular target: 5-hydroxytryptamine receptor 2A (Homo sapiens, UniProt P28223); format: cell-based, CHO
[13] = molecular target: T3, 5-hydroxytryptamine receptor 2C (Rattus norvegicus, UniProt P08909); assay: Activity against recombinant rat 5HT2C mediated intracellular calcium mobilization by FLIPR in SR3T3 cells
T3 sequence (P08909 whole entry): T1 sequence (whole entry)

[14] = molecular target: 5-hydroxytryptamine receptor 2B (Homo sapiens, UniProt P41595); assay: biochemical
Description: Displacement of [125I]DOI from cloned human 5HT2B receptor expressed in CHO cells

[15] = molecular target: T4, 5-hydroxytryptamine receptor 2C (Homo sapiens, UniProt P28335); assay: biochemical
T4 sequence (P28335 whole entry): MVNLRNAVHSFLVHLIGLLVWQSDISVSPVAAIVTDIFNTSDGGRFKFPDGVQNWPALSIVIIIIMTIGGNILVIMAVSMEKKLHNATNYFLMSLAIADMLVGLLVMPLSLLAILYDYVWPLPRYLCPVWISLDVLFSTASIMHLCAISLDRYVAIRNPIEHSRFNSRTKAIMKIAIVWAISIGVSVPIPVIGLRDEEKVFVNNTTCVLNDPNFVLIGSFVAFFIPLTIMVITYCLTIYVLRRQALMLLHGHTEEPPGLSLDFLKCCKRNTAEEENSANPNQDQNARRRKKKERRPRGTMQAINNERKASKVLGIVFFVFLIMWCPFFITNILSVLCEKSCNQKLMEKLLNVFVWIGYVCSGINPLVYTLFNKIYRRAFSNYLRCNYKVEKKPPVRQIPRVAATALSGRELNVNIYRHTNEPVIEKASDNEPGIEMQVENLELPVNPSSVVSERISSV
Description: Displacement of [125I]DOI from cloned human 5HT2C receptor expressed in CHO cells

[16] = molecular target: T5, 5-hydroxytryptamine receptor 1A (Homo sapiens, UniProt P08908); assay: Agonistic activity at cloned human 5HT1A receptor expressed in CHO cells by inhibition of forskolin-induced cAMP production; format: functional, cell-based
T5 sequence (P08908 whole entry): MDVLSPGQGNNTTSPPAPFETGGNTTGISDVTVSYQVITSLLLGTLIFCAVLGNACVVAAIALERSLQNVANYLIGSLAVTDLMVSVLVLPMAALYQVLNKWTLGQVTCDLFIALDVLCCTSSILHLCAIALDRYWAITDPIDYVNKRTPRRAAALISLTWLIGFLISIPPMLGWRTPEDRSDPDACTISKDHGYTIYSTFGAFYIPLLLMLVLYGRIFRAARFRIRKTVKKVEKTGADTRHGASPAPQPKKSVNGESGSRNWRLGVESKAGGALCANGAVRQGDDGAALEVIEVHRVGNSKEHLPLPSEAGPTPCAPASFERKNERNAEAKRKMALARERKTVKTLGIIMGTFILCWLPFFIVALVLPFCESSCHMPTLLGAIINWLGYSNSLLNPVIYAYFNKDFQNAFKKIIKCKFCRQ

[17] = molecular target: T6, Alpha-2A adrenergic receptor (Homo sapiens, UniProt P08913); assay: Activity at adrenergic alpha2A receptor expressed in human clonic adenocarcinoma HT29 cell by […]; format: functional, cell-based, HT-29
T6 sequence (P08913 whole entry): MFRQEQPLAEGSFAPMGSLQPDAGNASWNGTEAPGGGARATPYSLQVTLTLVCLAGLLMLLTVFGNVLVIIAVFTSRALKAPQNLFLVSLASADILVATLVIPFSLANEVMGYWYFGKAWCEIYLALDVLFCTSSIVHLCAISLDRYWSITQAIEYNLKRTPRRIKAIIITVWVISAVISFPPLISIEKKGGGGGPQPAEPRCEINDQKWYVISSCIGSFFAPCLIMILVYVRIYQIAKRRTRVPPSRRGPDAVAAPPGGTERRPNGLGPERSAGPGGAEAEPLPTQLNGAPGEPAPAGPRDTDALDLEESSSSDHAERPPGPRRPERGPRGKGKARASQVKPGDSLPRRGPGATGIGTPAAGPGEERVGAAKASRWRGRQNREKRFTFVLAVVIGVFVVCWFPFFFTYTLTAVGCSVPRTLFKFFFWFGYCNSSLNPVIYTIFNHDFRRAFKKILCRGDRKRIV

[18] = molecular target: T6, Alpha-2A adrenergic receptor; assay: Activity at adrenergic alpha-2A receptor expressed in human clonic adenocarcinoma HT29 cell by adenylyl cyclase assay; format: functional, cell-based, HT-29
[19] = molecular target: Alpha-2B adrenergic receptor (Homo sapiens, UniProt P18089); assay: Activity at adrenergic alpha-2B receptor expressed in opposum kidney OK cell by adenylyl cyclase assay; format: functional, cell-based
[20] = molecular target: 5-hydroxytryptamine receptor 7 (Homo sapiens, UniProt P34969); assay: Activity at 5HT7 receptor expressed in human corneal epithelial CEPI-17-CL4 cells by adenylyl cyclase assay; format: functional, cell-based, Cornea
[21] = molecular target: T7, Alpha-2C adrenergic receptor (Homo sapiens, UniProt P18825); assay: Activity at adrenergic Alpha-2C receptor expressed in rat-mouse hybrid […] cell by adenylyl cyclase assay; format: functional, cell-based
T7 sequence (P18825 whole entry): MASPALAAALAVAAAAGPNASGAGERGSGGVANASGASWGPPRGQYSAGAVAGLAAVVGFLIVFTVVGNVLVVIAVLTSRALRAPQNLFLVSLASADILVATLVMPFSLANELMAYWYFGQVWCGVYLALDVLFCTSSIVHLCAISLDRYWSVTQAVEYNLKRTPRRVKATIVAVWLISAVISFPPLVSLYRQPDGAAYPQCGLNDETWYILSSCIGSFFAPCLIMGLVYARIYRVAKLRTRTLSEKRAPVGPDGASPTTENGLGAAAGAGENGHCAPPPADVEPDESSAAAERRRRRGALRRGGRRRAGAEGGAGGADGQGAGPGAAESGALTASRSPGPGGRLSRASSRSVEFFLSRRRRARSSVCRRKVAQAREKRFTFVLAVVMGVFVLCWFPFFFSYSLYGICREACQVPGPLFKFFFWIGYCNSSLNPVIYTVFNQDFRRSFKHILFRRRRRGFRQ

5-hydroxytryptamine receptor 2A (Homo sapiens, UniProt P28223), sequence (P28223 whole entry): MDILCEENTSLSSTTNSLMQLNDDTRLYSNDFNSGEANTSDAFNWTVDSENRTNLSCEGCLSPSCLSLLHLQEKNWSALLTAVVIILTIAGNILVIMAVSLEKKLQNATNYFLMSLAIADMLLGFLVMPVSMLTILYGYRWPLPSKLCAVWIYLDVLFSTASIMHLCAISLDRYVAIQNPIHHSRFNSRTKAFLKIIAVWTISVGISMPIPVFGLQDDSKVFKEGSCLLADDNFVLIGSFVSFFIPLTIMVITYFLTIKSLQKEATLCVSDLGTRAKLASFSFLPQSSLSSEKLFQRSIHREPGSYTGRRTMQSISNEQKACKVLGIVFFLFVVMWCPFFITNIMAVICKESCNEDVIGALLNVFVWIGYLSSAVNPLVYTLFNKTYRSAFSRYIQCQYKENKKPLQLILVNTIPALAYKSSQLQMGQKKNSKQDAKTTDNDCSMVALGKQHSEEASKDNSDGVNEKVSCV
5-hydroxytryptamine receptor 2B (Rattus norvegicus, UniProt P30994), sequence (P30994 whole entry): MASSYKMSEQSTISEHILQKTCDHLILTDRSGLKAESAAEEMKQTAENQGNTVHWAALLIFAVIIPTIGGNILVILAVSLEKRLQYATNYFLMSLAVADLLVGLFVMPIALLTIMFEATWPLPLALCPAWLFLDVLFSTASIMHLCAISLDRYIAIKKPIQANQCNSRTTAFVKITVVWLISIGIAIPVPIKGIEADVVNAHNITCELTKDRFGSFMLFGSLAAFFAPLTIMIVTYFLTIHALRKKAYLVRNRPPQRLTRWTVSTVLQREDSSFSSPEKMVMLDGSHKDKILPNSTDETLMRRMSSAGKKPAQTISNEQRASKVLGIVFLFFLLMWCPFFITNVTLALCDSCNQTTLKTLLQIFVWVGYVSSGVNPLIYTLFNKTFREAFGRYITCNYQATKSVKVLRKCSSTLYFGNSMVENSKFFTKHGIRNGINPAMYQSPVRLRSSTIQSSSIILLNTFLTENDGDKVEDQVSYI
5-hydroxytryptamine receptor 2B (Homo sapiens, UniProt P41595), sequence (P41595 whole entry): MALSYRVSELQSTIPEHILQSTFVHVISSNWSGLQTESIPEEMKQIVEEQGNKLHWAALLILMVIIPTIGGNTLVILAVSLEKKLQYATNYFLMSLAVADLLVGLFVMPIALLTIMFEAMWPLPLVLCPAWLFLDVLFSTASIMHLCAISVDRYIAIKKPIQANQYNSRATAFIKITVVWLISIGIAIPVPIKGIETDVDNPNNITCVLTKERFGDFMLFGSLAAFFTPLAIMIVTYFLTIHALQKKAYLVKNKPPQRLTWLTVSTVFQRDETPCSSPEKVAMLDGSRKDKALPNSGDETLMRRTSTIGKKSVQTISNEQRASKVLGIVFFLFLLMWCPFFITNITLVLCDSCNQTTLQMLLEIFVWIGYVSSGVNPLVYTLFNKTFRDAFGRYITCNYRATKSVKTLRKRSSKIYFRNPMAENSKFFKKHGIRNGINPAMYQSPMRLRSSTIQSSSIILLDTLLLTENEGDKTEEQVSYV
5-hydroxytryptamine receptor 2A (Rattus norvegicus), sequence (P14842 whole entry): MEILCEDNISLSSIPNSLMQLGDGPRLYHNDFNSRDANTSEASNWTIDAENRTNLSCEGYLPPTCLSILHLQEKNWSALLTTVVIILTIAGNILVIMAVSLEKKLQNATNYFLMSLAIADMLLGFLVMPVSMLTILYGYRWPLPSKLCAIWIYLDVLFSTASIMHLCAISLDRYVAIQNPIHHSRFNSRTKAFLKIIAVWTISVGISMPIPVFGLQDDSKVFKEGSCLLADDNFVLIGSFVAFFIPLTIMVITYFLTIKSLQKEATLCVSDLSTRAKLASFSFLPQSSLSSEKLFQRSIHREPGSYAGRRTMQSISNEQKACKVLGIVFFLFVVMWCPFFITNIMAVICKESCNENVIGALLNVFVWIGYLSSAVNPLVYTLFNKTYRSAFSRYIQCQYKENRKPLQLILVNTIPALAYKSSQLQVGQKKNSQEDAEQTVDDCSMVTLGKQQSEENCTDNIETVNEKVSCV
T2 sequence (P14842 whole entry): as above
Alpha-2B adrenergic receptor, sequence (P18089 whole entry): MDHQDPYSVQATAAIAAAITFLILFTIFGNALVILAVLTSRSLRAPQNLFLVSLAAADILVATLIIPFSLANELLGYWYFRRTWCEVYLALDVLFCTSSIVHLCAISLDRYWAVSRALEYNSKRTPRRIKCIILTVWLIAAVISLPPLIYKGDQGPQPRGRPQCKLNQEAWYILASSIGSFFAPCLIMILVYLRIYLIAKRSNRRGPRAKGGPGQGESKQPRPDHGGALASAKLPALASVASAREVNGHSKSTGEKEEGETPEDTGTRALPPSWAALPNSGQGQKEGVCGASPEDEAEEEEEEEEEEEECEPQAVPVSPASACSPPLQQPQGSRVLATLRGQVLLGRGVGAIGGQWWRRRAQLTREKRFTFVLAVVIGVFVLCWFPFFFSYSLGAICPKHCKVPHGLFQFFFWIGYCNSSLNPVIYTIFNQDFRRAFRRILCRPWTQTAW
5-hydroxytryptamine receptor 7, sequence (P34969 whole entry): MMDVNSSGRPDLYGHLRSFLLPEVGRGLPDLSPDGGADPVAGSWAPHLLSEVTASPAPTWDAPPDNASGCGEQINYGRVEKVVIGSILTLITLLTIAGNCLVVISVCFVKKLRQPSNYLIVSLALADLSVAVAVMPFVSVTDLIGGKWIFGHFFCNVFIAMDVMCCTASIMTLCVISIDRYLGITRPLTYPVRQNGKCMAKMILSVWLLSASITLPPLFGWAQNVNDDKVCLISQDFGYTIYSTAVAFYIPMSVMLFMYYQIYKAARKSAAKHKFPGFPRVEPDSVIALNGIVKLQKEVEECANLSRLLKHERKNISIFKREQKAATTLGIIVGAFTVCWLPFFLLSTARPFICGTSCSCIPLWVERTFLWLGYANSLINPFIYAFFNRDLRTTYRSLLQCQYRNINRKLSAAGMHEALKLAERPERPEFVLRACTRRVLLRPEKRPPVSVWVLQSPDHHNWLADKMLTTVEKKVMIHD

Row | Compound | Emax [1] | Emax [3] | logD [4] | T1/2 [5] | pIC50 [6] | Papp A→B (MDR1 (P-gp) [7]) | pEC50 [8] | Papp B→A (MDR1 (P-gp) [9]) | pEC50 [10] | pKi [12] | pEC50 [13] | pKi [14] | pKi [15] | also measured
1 | CC(N)Cc1c[nH]c2ccc(O)cc12 (configuration not stated) | 100% | 96% | – | – | – | – | – | – | – | – | – | – | – | T1/2 [2]: 0.071 yr
2 | C[C@H](N)Cn1ncc2ccc(O)c(Cl)c21 | 104% | 87% | 1.09 | 4 yr | 9.27 | 1.65 ×10⁻⁶ cm/s | 8.23 | 4.94 ×10⁻⁶ cm/s | 7.22 | 7.92 | 8.31 | 8.42 | 8.92 | efflux ratio (MDR1 (P-gp) [11]): 3
3 | COc1ccc2[nH]cc(CCN(C)C)c2c1 [MEBUFOTENIN] | 89% | 70% | 3.3 | – | 8.02 | 16.1 ×10⁻⁶ cm/s | – | 14.4 ×10⁻⁶ cm/s | 6.34 | – | – | – | – | –
4 | COc1ccc2cnn(C[C@H](C)N)c2c1 | 103% | 90% | 2.08 | – | 8.72 | 14.1 ×10⁻⁶ cm/s | 8.38 | 19.5 ×10⁻⁶ cm/s | 7.27 | 7.80 | 8.17 | 8.12 | 8.82 | –
5 | COc1ccc2[nH]cc(CC(C)N)c2c1 (configuration not stated) | 103% | 96% | – | – | 8.70 | – | 8.57 | – | 7.32 | – | 8.51 | – | – | –
6 | COc1cc(C[C@@H](C)N)c(OC)cc1I | – | 35% | 2.72 | – | 9.68 | 12.6 ×10⁻⁶ cm/s | 7.92 | 23.2 ×10⁻⁶ cm/s | 7.70 | – | 7.52 | – | – | –
7 | Cc1c(O)ccc2cnn(C[C@H](C)N)c12 | 91% | 89% | 1.28 | 0.73 yr | 9.13 | 2.49 ×10⁻⁶ cm/s | 8.05 | 3.12 ×10⁻⁶ cm/s | 7.09 | 8.74 | 8.14 | 8.06 | 8.44 | –
8 | NCCn1ncc2ccc(O)cc21 | 104% | 75% | 0.254 | 3.7 yr | 9.11 | 0.64 ×10⁻⁶ cm/s | 8.07 | 0.6 ×10⁻⁶ cm/s | 7.13 | 7.70 | 8.35 | 7.82 | 8.02 | –
9 | C[C@H](N)Cn1ncc2ccc(O)c(I)c21 | – | 73% | 3 | – | 8.77 | 1.22 ×10⁻⁶ cm/s | – | 3.46 ×10⁻⁶ cm/s | 6.69 | 7.68 | – | 8.22 | 8.32 | –
10 | NCCc1c[nH]c2ccc(O)cc12 [SEROTONIN] | 94% | 99% | – | – | – | – | – | – | – | – | – | – | – | T1/2 [2]: 0.03 yr
11 | C[C@@H](N)Cn1ncc2ccc(O)cc21 | 97% | 61% | – | – | 8.68 | – | 7.07 | – | 6.63 | 6.98 | 7.06 | 7.46 | 7.47 | pEC50 [16]: 5.54; pEC50 [17]: 5.70; pEC50 [18]: < 5.00; pEC50 [19]: 5.33; pEC50 [20]: < 5.00; pEC50 [21]: 5.25
12 | C[C@H](N)Cn1ncc2ccc(O)c(F)c21 | 100% | 80% | 0.394 | 1.4 yr | 9.14 | 1.11 ×10⁻⁶ cm/s | 8.21 | 1.66 ×10⁻⁶ cm/s | 7.24 | 8.24 | 8.26 | 8.77 | 9.00 | efflux ratio (MDR1 (P-gp) [11]): 1.5
